Assay results: PMC10962836, “Cis-regulatory polymorphism at fiz ecdysone oxidase contributes to polygenic evolutionary response to malnutrition in Drosophila” (PLOS Genetics, 2024)

Target: T1, Fiz (Drosophila melanogaster, UniProt Q9VY04)
T1 construct: N-terminal RGS-6xHis tag kept; E. coli Rosetta Gami DE3, Ni-NTA; contains FAD
T1 sequence (Q9VY04 2-646): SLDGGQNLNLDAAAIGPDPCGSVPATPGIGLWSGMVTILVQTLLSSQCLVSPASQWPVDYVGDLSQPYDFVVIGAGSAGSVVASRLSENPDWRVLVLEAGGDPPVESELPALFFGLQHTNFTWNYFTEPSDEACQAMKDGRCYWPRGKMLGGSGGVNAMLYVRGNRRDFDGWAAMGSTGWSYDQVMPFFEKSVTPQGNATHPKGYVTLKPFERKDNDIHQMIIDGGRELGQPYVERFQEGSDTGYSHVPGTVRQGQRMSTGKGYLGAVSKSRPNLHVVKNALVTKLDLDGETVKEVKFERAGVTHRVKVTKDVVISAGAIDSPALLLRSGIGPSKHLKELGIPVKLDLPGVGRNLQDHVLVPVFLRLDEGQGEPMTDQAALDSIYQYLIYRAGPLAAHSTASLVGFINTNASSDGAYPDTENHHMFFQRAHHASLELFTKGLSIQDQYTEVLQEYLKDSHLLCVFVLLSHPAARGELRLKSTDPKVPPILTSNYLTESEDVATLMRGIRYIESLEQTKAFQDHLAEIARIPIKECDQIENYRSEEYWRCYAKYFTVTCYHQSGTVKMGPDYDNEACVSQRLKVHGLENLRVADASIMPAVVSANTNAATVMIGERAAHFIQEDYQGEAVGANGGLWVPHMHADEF
Assay: FAD content of purified protein (method in supplement)
Format: binding
Conditions: co-purified from E. coli, no FAD addition told

SMILES: Cc1cc2nc3c(=O)[nH]c(=O)nc-3n(C[C@H](O)[C@H](O)[C@H](O)COP(=O)(O)OP(=O)(O)OC[C@H]3O[C@@H](n4cnc5c(N)ncnc54)[C@H](O)[C@@H]3O)c2cc1C [FAD]
- FAD content of purified protein (method in supplement): we confirmed that our purified Fiz contained FAD
